Experimental data published in patent US20170119034A1, “COMPOSITIONS AND METHODS FOR MODIFYING PERCEPTION OF SWEET TASTE” (University of Florida Research Foundation, Inc., priority 2012, published 2017).

What was measured:
[1] = test system: tomato flavor intensity (consumer panel); assay: Tomato consumer taste panel: overall tomato flavor intensity (gLMS) versus fruit chemical content; format: in vivo, human; conditions: for association with flavor intensity: univariate models; for association with tomato flavor intensity: volatiles with high odor unit values
Method: (§1) Sensory analysis. Fully ripe fruit were harvested, and used for taste panels. A random subset of fruit was used for biochemical analysis. Three biological replicates, each consisting of 2-20 fruit (depending on fruit size), were assayed for each variety. […] Panelists were between the ages of 18 and 78 with a median age of 22. […] An average of 85 (range of 66-95) of these panelists evaluated between 4-6 varieties in a session. All panelists went through a training session to familiarize them with the scaling and procedures. Tomatoes were sliced into wedges (or in halves for grape/cherry types) and each panelist was given two pieces for evaluation. Panelists took a bite of each sample, chewed and swallowed it, and rated overall liking and liking for texture. They then rated the perceived intensities of sweetness, sourness, saltiness, umami sensation, bitterness and overall tomato flavor. They were free to take as many bites as necessary to complete the assessments. They were instructed to take a bite of an unsalted cracker and a sip of water between samples. Samples were presented to the panelists in a randomized order. Hedonic ratings used the hedonic gLMS. This scale assesses the liking for tomatoes in the context of all pleasure/displeasure experiences: 0=neutral, −100=strongest disliking of any kind experienced, and +100=strongest liking of any kind experienced. Sensory intensity ratings used the gLMS (7, 8, 19).This scale assesses taste and flavor sensations in the context of all sensory experience (7): 0=no sensation, 100=strongest sensation of any kind experienced. Both scales were devised to provide valid comparisons across subjects.
(§2) Statistical analysis. The 68 chemical compounds measured in this experiment were divided into six groups based upon biochemical properties: sugars, branched chain amino acids, lipids, carotenoids, phenolics, and acids. A small number of compounds for which biosynthetic pathways are not established were assigned to one of the six classes based upon their correlations with other classified compounds. All pairwise correlations among the set of 68 compounds were calculated. Correlation coefficients were sorted using Modulated Modularity Clustering (MMC) (9) as a visual aid for identifying compounds that are closely related in this sample (FIG. 1; Table 4). Biochemical groups were examined for compounds within the group that were highly correlated and compounds that were upstream in the relevant metabolic pathways were preferentially selected.
(§3) All analyses were performed in SAS v 9.2.

[2] = test system: perceived sweetness of tomato fruit (consumer panel); assay: Tomato consumer taste panel: perceived sweetness (gLMS) regressed on fruit chemical content; format: in vivo, human; conditions: for association with sweetness: univariate models; for t: multiple regression of volatile against perceived sweetness of tomato, independent of the measures of sugar
Method: as §1, §2, §3
In conducting the multiple regression analysis on the tomato data set, the independent variables were the sugar content (glucose+fructose), and the flavor (indicated by the retronasal perception of volatiles), while the dependent variable was the perceived sweetness.

[3] = test system: perceived sweetness of tomato fruit (consumer panel); conditions: analysis of a volatile subset (Tieman 2012); cited from earlier work
[4] = test system: strawberry flavor intensity (consumer panel); assay: Strawberry consumer panel: bivariate fit to strawberry flavor intensity; format: in vivo, human; conditions: for Parameter Estimates: Estimate: bivariate linear fit, X = content of the substance in strawberry fruit, Y = Flavor Intensity (FI)
Method: (§4) All consumer panels were approved by the University of Florida Institutional Review Board. […] Ages of panelist ranged from 18 to 71, with a median age of 24. Panelists self-classified themselves as 98 White or Caucasian, 11 Black or African-American, 1 Native American, Alaska Native or Aleutian, 41 Asian/Pacific Islander, and 15 Other. […] Fresh, fully-ripe strawberry fruit was removed from overnight 4° C. dark storage and allowed to warm to room temperature prior to sensory analysis. Each panelist was given one to two whole strawberries for evaluation, depending on cultivar availability. Panelist took a bite of each sample, chewed, and swallowed it. Ratings for overall liking and liking for texture were scaled on hedonic general labeled magnitude scale (gLMS) in the context of all pleasure/displeasure experiences. […] Scales were employed to mediate valid comparisons across subjects and sessions.
(§5) Bivariate analysis among individual measurements of samples allowed for linear fit, which includes summary of fit, analysis of variance, t-test, and correlation analysis for density ellipse. Two-way Ward hierarchical cluster analysis of all metabolite concentrations and strawberry samples accomplished in JMP.

[5] = test system: perceived sweetness intensity of strawberry fruit (consumer panel); assay: Strawberry consumer panel: multiple regression of volatile concentration against perceived sweetness intensity independent of glucose, fructose or sucrose; format: in vivo, human; conditions: for FRUCTOSE t RATIO: volatile concentration regressed against perceived sweetness intensity independent of fructose; for GLUCOSE t RATIO: volatile concentration regressed against perceived sweetness intensity independent of glucose; for SUCROSE t RATIO: volatile concentration regressed against perceived sweetness intensity independent of sucrose
Method: Step-wise multiple regressions of all volatile compounds against perceived intensity of sweetness is performed independent of either glucose, fructose, or sucrose concentration, separately (Table 6).
as §4
Multiple regressions were performed with the “enter” method in SPSS for identification of sweetness enhancing volatiles. Individual volatile compound concentrations were regressed using the “enter” method in SPSS Statistics (IBM Corp, Armonk, N.Y., USA).

[6] = test system: texture liking of strawberry fruit (consumer panel); assay: Strawberry consumer panel: bivariate fit to texture liking; format: in vivo, human; conditions: bivariate linear fit; X = content of the substance in strawberry fruit, Y = Texture liking
Method: as §4, §5

CCCCOC(C)=O [123-86-4, butyl acetate]
association with flavor intensity [1]: associated with flavor intensity in univariate models
association with sweetness ([2]; tomato): showed evidence for association with sweetness in univariate models

C/C=C/C(=O)C1=C(C)C=CCC1(C)C [β-damascenone]
association with tomato flavor intensity [1]: not associated with tomato flavor intensity

C=CCc1ccc(O)c(OC)c1 [eugenol]
association with sweetness ([2]; tomato): showed evidence for association with sweetness in univariate models

COc1ccccc1O [guaiacol]
association with sweetness ([2]; tomato): showed evidence for association with sweetness in univariate models

O=CCc1ccccc1 [phenylacetaldehyde]
association with flavor intensity [1]: associated with flavor intensity in univariate models
association with tomato flavor intensity [1]: not associated with tomato flavor intensity
association with sweetness ([2]; tomato): showed evidence for association with sweetness in univariate models

CCC(C)OC(C)=O (stereo not drawn) [sec-butyl acetate]
association with flavor intensity after accounting for fructose ([1]; listed as 2-butylacetate): independently significant after accounting for fructose

CSCCC=O [methional]
association with flavor intensity [1]: associated with flavor intensity in univariate models
association with sweetness ([2]; tomato): showed evidence for association with sweetness in univariate models

CC/C=C\CCO [cis-3-hexen-1-ol]
association with flavor intensity after accounting for fructose [1]: independently significant after accounting for fructose
association with flavor intensity [1]: associated with flavor intensity in univariate models
association with sweetness ([2]; tomato): showed evidence for association with sweetness in univariate models

CC1C=CC2C(C1)C2(C)C (stereo not drawn) [4-carene]
association with sweetness ([2]; tomato): showed evidence for association with sweetness in univariate models

O=C(O)CC(O)(CC(=O)O)C(=O)O [citric acid]
association with flavor intensity after accounting for fructose [1]: independently significant after accounting for fructose
association with flavor intensity [1]: associated with flavor intensity in univariate models

CC(C)CCO [3-methyl-1-butanol]
association with flavor intensity after accounting for fructose ([1]; listed as 3-methyl-1-butenol): independently significant after accounting for fructose
association with flavor intensity [1]: associated with flavor intensity in univariate models
enhancing sweetness intensity independent of fructose [3]: enhancing sweetness intensity independent of fructose
association with sweetness after accounting for fructose ([2]; tomato): independent predictors of sweetness after accounting for fructose
association with sweetness ([2]; tomato): showed evidence for association with sweetness in univariate models

CCC/C=C/C=O [6728-26-3, (2E)-2-hexenal or trans-2-hexenal]
Parameter Estimates: Estimate [4]: 0.0003625
FRUCTOSE t RATIO [5]: 3.349
GLUCOSE t RATIO [5]: 3.314
SUCROSE t RATIO [5]: −0.816
t [2]: 0.051
Parameter Estimates-fit to Texture Liking: Estimate [6]: 0.000185

O=C(CO)[C@@H](O)[C@H](O)[C@H](O)CO [fructose]
association with flavor intensity [1]: associated with flavor intensity in univariate models
association with sweetness ([2]; tomato): showed evidence for association with sweetness in univariate models

c1ccc2scnc2c1 [benzothiazole]
association with flavor intensity [1]: associated with flavor intensity in univariate models

C=CC(C)(O)CCC=C(C)C (stereo not drawn) [78-70-6]
Parameter Estimates: Estimate [4]: 0.009457
relationship to strawberry flavor intensity / sensory perception ([4]; strawberry, in words): significant positive correlation with flavor intensity
FRUCTOSE t RATIO [5]: 0.872
GLUCOSE t RATIO [5]: 0.7
SUCROSE t RATIO [5]: −0.1
Parameter Estimates-fit to Texture Liking: Estimate [6]: 0.007729

CCCCCC(=O)OC [106-70-7]
Parameter Estimates: Estimate [4]: 0.002291
FRUCTOSE t RATIO [5]: −0.321
GLUCOSE t RATIO [5]: −0.531
SUCROSE t RATIO [5]: 0.802
Parameter Estimates-fit to Texture Liking: Estimate [6]: −0.002647

CCCCCCC=O [heptaldehyde]
association with sweetness ([2]; tomato): showed evidence for association with sweetness in univariate models

CC(C)=CCC/C(C)=C/C=O [geranial]
association with flavor intensity [1]: associated with flavor intensity in univariate models
enhancing sweetness intensity independent of fructose [3]: enhancing sweetness intensity independent of fructose
association with sweetness after accounting for fructose ([2]; tomato): independent predictors of sweetness after accounting for fructose
correlation with sweetness ([2]; tomato, direction of correlation): positively correlated with sweetness
contribution to perceived sweetness ([2]; tomato, multiple regression analysis using the volatiles): positive contributor to perceived sweetness
association with sweetness ([2]; tomato): showed evidence for association with sweetness in univariate models

CCCCC/C=C/C=C/C=O [trans,trans-2,4-decadienal]
association with flavor intensity after accounting for fructose [1]: independently significant after accounting for fructose
association with flavor intensity [1]: associated with flavor intensity in univariate models

C=CC(=O)CCCCC [1-octen-3-one]
association with flavor intensity after accounting for fructose [1]: independently significant after accounting for fructose
association with flavor intensity [1]: associated with flavor intensity in univariate models

CCCCCCCCC=O [nonyl aldehyde]
t [2]: 1.148
